One test has as its system mice. Nature of the test: AngII infusion by minipump in control, β-catenin depleted and β-catenin stabilized mice. In kind it is in vivo, mouse. The protocol:
After 12 days' AngII infusion at pressure doses (1.4 μg Kg^−1 min^−1), control animals developed hypertrophy as judged by echocardiography, gene regulation, in vivo cross sectional area, and heart/body weight ratio as described before (FIG. 4). From the M-mode echocardiography imaging, a thickened inter-ventricular septum and LV posterior wall after AngII was identified in control animals (FIG. 4A). […] LV wall thickening was identical in β-catenin heart-depleted animals and control littermates after AngII (data not shown). […] Moreover, AngII increased gene expression of several hypertrophy gene markers in both control and b-catenin heart-depleted animals with the exception of β-myosin heavy chain (FIG. 4 C). A lack of β-MHC upregulation in response to stress stimuli might be indicative of adaptive cardiac remodeling preserving LV-function as described before (van Rooij E et al., Circ Res. 2004; 94:18e-26).
The effects of 12 days' AngII infusion in mice with cardiac stabilized β-catenin (β-cat^Δex3) were opposite in kind to those of mice with β-catenin heart-depletion. […] ANP (β-cat^Δex3 0.4±0.15; β-cat^Δex3+AngII 1.03±0.15; p<0.01) and BNP (β-cat^Δex3 0.43±0.24; β-cat^Δex3+AngII 1.4±0.27; p<0.01) expression was induced by AngII but final values were generally lower than in control mice (ANP: CT+AngII 2.3±0.8; BNP: CT+AngII 2.6±0.6).
As expected, fractional shortening increased in control mice after AngII treatment (31.1±1.6% to 36.2±1.6%). However, β-catenin heart-stabilization led to reduced fractional shortening after AngII infusion (34.7±2.9% to 22.4±4.5%, p<0.05). These absolute values in animals aged 10 to 14 weeks are identical to a serial analysis of the age-dependant changes employing the same high-resolution echo techniques as used for these studies. […] These absolute values are similar to other reports, i.e. rates of apoptotic cardiomyocytes after trans-aortic constriction. Moreover, no significant differences concerning fibrosis occurring focally throughout the LV wall was observed when both transgenic models were to their respective controls.
Representative examples of M-mode echocardiograms (not shown), quantification of echocardiographic parameters and heart/body weight from control and β-cat^Δex3-6 mice with and without AngII infusion are shown (n≧6 for each group) (B) Myocyte cross-sectional area increases in both control and β-catenin depleted β-cat^Δex3-6 mice as measured by WGA-FITC staining of cardiac tissue sections and quantification from control or β-cat^Δex3-6 mice with AngII infusion (data not shown). At least 500 cells were measured for each animal, n≧4 mice per group. (C) Significant upregulation of ANP, BNP and α-sarcomeric actin normalized to GAPDH after AngII in control and β-catenin depleted β-cat^Δex3-6 mice. Quantification by real-time PCR of whole heart RNA samples from control (white) or β-cat^Δex3-6 (grey) mice without (open bars) and with (shaded bars) AngII infusion. *=P<0.05, **=P<0.01, ***=P<0.001.
(A) Attenuation of cardiac hypertrophy after AngII in β-catenin stabilized mice is accompanied by significant deterioration of systolic function as measured by fractional shortening (right bar graph). Representative examples of M-mode echocardiograms and quantification from control or β-cat^Δex3 mice with and without AngII infusion. Quantification of echocardiographic wall size and fractional shortening from control or β-cat^Δex3 mice with and without AngII infusion. *=P<0.05, **=P<0.01. (B) Increase of myocyte cross-sectional area after AngII is attenuated in β-catenin stabilized β-cat^Δex3 mice (data not shown). At least 400 cells counted per animal, mice per group. ***=P<0.001. (C) Rates of TUNEL/α-sarcomeric actin/DAPI-positive cardiomyocytes after AngII infusion decrease after β-catenin stabilization in β-cat^Δex3. In addition to the TUNEL-assay, slides were co-stained with α-sarcomeric actin and DAPI in control mice and β-cat^Δex3 mice before and after AngII stimulation (data not shown).

Test [1] has as its system β-catenin dependent transcription. Description: topflash reporter gene assay in isolated neonatal rat cardiomyocytes. In kind it is cell-based. The note with it: co-transfection of KLF15; reporter activated by stabilized β-catenin (ΔN-catenin). The protocol:
(§1) The transcription factor Krüppel-like factor (KLF) 15 inhibits β-catenin dependent transcription in isolated cardiomyocytes through a direct interaction of its C-terminal end as shown by topflash reporter gene assay and immunoprecipitation assays (FIG. 9 A). Isolated neonatal rat cardiomyocytes were used as a model system to analyze factors inhibiting β-catenin dependent gene regulation. β-catenin dependent transcription was measured by reporter gene assay. […] Concerning the molecular mechanisms, KLF15 mutants were analyzed concerning their direct protein interaction to β-catenin employing immunoprecipitation analysis (FIG. 9 B). The interacting domain was mapped to the N-terminus between amino acids 1 and 45 (FIG. 9 B), where as the C-terminus was also required for the transcriptional repressive function.
(§2) Inhibition of β-catenin-dependent gene transcription by KLF15. (A) Reporter gene assay in isolated neonatal cardiomyocytes showing activation of the topflash reporter gene by stabilized β-catenin (ΔN-catenin; dN). A dose-dependent inhibition is observed by co-transfection of KLF15.
(Reporter assays use an easily measured gene product as a stand-in for the process of interest.)

In the next test the target is T1, β-catenin (Homo sapiens, UniProt P35222).
T1 sequence (P35222 1-781): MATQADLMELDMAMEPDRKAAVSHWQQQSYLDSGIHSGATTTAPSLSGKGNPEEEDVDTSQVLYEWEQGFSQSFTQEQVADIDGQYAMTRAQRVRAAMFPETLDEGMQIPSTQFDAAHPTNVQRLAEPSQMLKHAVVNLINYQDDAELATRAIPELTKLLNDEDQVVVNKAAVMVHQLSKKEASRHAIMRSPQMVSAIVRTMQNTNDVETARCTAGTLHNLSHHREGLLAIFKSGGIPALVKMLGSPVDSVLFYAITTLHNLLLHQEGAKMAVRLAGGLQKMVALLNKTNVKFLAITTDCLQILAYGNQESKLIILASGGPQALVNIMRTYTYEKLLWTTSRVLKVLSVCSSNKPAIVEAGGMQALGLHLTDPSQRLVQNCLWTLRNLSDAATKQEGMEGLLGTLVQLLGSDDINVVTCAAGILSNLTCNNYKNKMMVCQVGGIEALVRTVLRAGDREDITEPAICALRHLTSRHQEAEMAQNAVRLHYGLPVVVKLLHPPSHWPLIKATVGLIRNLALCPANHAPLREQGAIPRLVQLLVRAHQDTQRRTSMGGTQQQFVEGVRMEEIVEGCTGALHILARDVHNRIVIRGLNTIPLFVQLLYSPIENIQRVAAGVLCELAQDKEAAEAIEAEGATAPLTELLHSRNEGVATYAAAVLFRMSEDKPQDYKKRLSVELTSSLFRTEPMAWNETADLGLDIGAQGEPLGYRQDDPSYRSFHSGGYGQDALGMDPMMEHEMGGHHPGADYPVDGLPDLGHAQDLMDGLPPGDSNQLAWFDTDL
Nature of the test: co-immunoprecipitation of KLF15 and KLF15 mutants with β-catenin. Format: binding. The note with it: full length KLF15. The protocol:
as §1, §2

With “Angiotensin II (DRVYIHPF; Angiotensin-2; UniProt P01019 25-32, looked up) [AngII, hypertrophic stress stimulus infused by minipump]”, the entries for the “cardiomyocyte size following AngII treatment” value in the test on mice (CT animals of the β-catenin stabilization model) and in the test with mice (β-cat^Δex3 mice) were 9.07×10^7±0.14×10^7 and 8.14×10^7±0.14×10^7, respectively. In addition, the “TUNEL-positive cells after AngII” value in the test on mice (CT of the β-catenin depletion model, baseline 0.004±0.004) stood at 0.09±0.02%; in the test on mice (β-cat^Δex3-6 mice, baseline 0.112±0.044%) it was 0.2±0.13%. Also, the ANP expression in the test on mice (CT+AngII) was determined as 2.3±0.8; in the test with mice (β-cat^Δex3+AngII, baseline 0.4±0.15), 1.03±0.15. For the same substance, the BNP expression was 2.6±0.6 with mice (CT+AngII) and 1.4±0.27 in the test on mice (β-cat^Δex3+AngII, baseline 0.43±0.24). For the same substance, the “TUNEL/α-sarcomeric actin/DAPI-positive cells after AngII” value is 0.297±0.025% with mice (CT+AngII, β-catenin stabilization model) and 0.120±0.049% with mice (β-cat^Δex3 mice, baseline 0.058±0.027%). The “Axin2 levels (whole heart RNA)” value in the test on mice (both control and β-catenin stabilized mice) is given as “increased”. The “cellular cross sectional area” value in the test with mice (control mice of the β-catenin depletion model, after 12 days' AngII infusion) is given as 12.3×10^7±0.19×10^7 a.u; in the test on mice (β-catenin depleted mice (β-cat^Δex3-6), after 12 days' AngII infusion 1.4 μg Kg^−1 min^−1) it was 12.1×10^7±0.24×10^7 a.u. In addition, the “fractional shortening after AngII” value is on record as 36.2±1.6% in the test with mice (control mice, baseline 31.1±1.6%) and 22.4±4.5% in the test with mice (β-catenin heart-stabilized mice, baseline 34.7±2.9%). Further, the Tbx5 gene expression result in the test with mice (control mice, effect lost in β-catenin stabilized mice) is listed as “significantly downregulated”.

“KLF15: transcription factor Krüppel-like factor 15, co-transfected; inhibits β-catenin dependent transcription”: in test [1], the “topflash reporter gene activation” value is “inhibit topflash reporter gene activation dose dependendly”. In addition, the “direct protein interaction to β-catenin (immunoprecipitation)” value in the test with β-catenin was “interaction”.

(Values after patent US8969080B2, “Remedy for the treatment of cardio-vascular diseases or disorders” (Max-Delbrueck-Centrum fuer Molekulare Medizin, priority 2007, dated 2015).)
